# Reference: the supplement of paper PMC4862054
# Key:
# Experiment in all cases: normalised viability (% of control), CellTiter-Blue; higher = more viable cells (about 100 = DMSO control)
# [1] = tested on: MDA-MB-436; conditions: 10000 nM; incubation time: 72 h
# Procedure, shortened: (§1)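 The reported figure is normalised viability at a single listed concentration of the series. Breast cancer cell lines (20 µl suspension) went onto 384-well plates holding compound in 5 µl medium for 72 h. CellTiter-Blue (2.5 µl, 2 h, 37 °C) was read by fluorescence at 560/590 nm, and each plate was scaled to vehicle at 100 and a positive kill control at 0.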
# [2] = tested on: Hs578T; conditions: 10000 nM; incubation time: 72 h
# Procedure, shortened: as §1
# [3] = tested on: MDA-MB-231; conditions: 10000 nM; incubation time: 72 h
# Procedure, shortened: as §1
# [4] = tested on: HCC1937; conditions: 10000 nM; incubation time: 72 h
# Procedure, shortened: as §1
# [5] = tested on: MDA-MB-468; conditions: 10000 nM; incubation time: 72 h
# Procedure, shortened: as §1
# [6] = tested on: BT-549; conditions: 10000 nM; incubation time: 72 h
# Procedure, shortened: as §1
# [7] = tested on: HCC1599; conditions: 10000 nM; incubation time: 72 h
# Procedure, shortened: as §1
# [8] = tested on: DU-4475; conditions: 100 nM; incubation time: 72 h
# Procedure, shortened: as §1
# [9] = tested on: HDQ-P1; conditions: 100 nM; incubation time: 72 h
# Procedure, shortened: as §1
# [10] = tested on: BT-474; conditions: 10000 nM; incubation time: 72 h
# Procedure, shortened: as §1
# [11] = tested on: CAL-85-1; conditions: 100 nM; incubation time: 72 h
# Procedure, shortened: as §1
# [12] = tested on: CAL-51; conditions: 100 nM; incubation time: 72 h
# Procedure, shortened: as §1
# [13] = tested on: CAL-148; conditions: 100 nM; incubation time: 72 h
# Procedure, shortened: as §1
# [14] = tested on: MDA-MB-453; conditions: 3 nM; incubation time: 72 h
# Procedure, shortened: as §1
# [15] = tested on: MDA-MB-436; conditions: 10 nM; incubation time: 72 h
# Procedure, shortened: as §1
# [16] = tested on: Hs578T; conditions: 10 nM; incubation time: 72 h
# Procedure, shortened: as §1
# [17] = tested on: SK-BR-3; conditions: 10 nM; incubation time: 72 h
# Procedure, shortened: as §1
# [18] = tested on: MDA-MB-231; conditions: 10 nM; incubation time: 72 h
# Procedure, shortened: as §1
# [19] = tested on: HCC1937; conditions: 10 nM; incubation time: 72 h
# Procedure, shortened: as §1
# [20] = tested on: MDA-MB-468; conditions: 10 nM; incubation time: 72 h
# Procedure, shortened: as §1
# [21] = tested on: BT-549; conditions: 10 nM; incubation time: 72 h
# Procedure, shortened: as §1
# [22] = tested on: HCC1599; conditions: 10 nM; incubation time: 72 h
# Procedure, shortened: as §1
# [23] = tested on: CAL-120; conditions: 10 nM; incubation time: 72 h
# Procedure, shortened: as §1
# [24] = tested on: MFM-223; conditions: 10 nM; incubation time: 72 h
# Procedure, shortened: as §1
# [25] = tested on: HCC1143; conditions: 10 nM; incubation time: 72 h
# Procedure, shortened: as §1
# [26] = tested on: HDQ-P1; conditions: 3 nM; incubation time: 72 h
# Procedure, shortened: as §1
# [27] = tested on: CAL-85-1; conditions: 3 nM; incubation time: 72 h
# Procedure, shortened: as §1
# [28] = tested on: CAL-51; conditions: 3 nM; incubation time: 72 h
# Procedure, shortened: as §1
# [29] = tested on: MDA-MB-453; conditions: 1000 nM; incubation time: 72 h
# Method: (§2)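 DSRT, CellTiter-Blue viability, 72 h incubation. Signal is normalised to DMSO and benzethonium chloride controls. Value is the normalised response at dose 7.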
# [30] = tested on: DU-4475; conditions: 1000 nM; incubation time: 72 h
# Method: as §2
# [31] = tested on: HDQ-P1; conditions: 1000 nM; incubation time: 72 h
# Method: as §2
# [32] = tested on: CAL-85-1; conditions: 1000 nM; incubation time: 72 h
# Method: as §2
# [33] = tested on: CAL-51; conditions: 1000 nM; incubation time: 72 h
# Method: as §2
# [34] = tested on: CAL-148; conditions: 1000 nM; incubation time: 72 h
# Method: as §2
smiles,measurement,setting,value
CN(C)CCN1C(=O)c2cccc3cc(N)cc(c23)C1=O [Amonafide],normalised viability,[1],44.1%
same,normalised viability,[2],47.6%
same,normalised viability,[3],22.3%
same,normalised viability,[4],29.5%
same,normalised viability,[5],41.3%
same,normalised viability,[6],47.9%
same,normalised viability,[7],47.5%
same,normalised viability,[8],84.6%
same,normalised viability,[9],110%
same,normalised viability,[10],69.3%
same,normalised viability,[11],87.8%
same,normalised viability,[12],104%
same,normalised viability,[13],84.7%
same,normalised viability,[14],106%
same,normalised viability,[15],111%
same,normalised viability,[16],113%
same,normalised viability,[17],99.9%
same,normalised viability,[18],97.2%
same,normalised viability,[19],91.8%
same,normalised viability,[20],105%
same,normalised viability,[21],84.9%
same,normalised viability,[22],98.2%
same,normalised viability,[23],82%
same,normalised viability,[24],92.1%
same,normalised viability,[25],83.6%
same,normalised viability,[26],98.5%
same,normalised viability,[27],91.6%
same,normalised viability,[28],112%
same,normalised viability,[29],81.7%
same,normalised viability,[30],86.8%
same,normalised viability,[31],93.8%
same,normalised viability,[32],84%
same,normalised viability,[33],99.1%
same,normalised viability,[34],74.5%
